The supplement of paper PMC11451515

Assays:
Details in all cases: 48 h
NOMO1 [1] = assay: cell viability relative to DMSO control; higher = less cytotoxic
In short: (§1)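 Viability is a per-plate percentage relative to DMSO wells, with cell-free wells as background. CellTiter-Glo One luminescence was read after 48 h at 37°C on 1536-well plates (5 μl) of NOMO1 or SEM (500 cells/well) or P12-Ichikawa (1000 cells/well) leukemia cells. The cells had been adapted for at least four passages in each medium and pin-dosed with library compounds in DMSO from 47 μM to 0.79 nM in 11 threefold steps.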

P12-Ichikawa [2] = assay: as above
In short: as §1

SEM cells [3] = assay: as above
In short: as §1

NOMO1 [4] = assay: AUC of viability dose-response curve (% viability x log10 dose units); higher = less sensitive
In short: (§2)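 In 1536-well plates, leukemia cells adapted to each medium (500 or 1000 cells/well) were exposed for 48 h at 37°C to library compounds in DMSO across 11 threefold doses, 47 μM down to 0.79 nM. Viability was read by CellTiter-Glo One luminescence and normalised per plate to DMSO and cell-free wells. A four-parameter log-logistic fit over log10 doses was integrated by trapezoidal rule. This yielded the area under the curve, with over-full-viability curves scaled and quality-control failures dropped.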

P12-Ichikawa [5] = assay: as above
In short: as §2

SEM cells [6] = assay: as above
In short: as §2

COc1cc([C@@H]2c3cc4c(cc3[C@H](O)[C@H]3COC(=O)[C@@H]23)OCO4)cc(OC)c1OC
cell viability [%]
Details | NOMO1 [1] | P12-Ichikawa [2] | SEM cells [3]
HPLM + 10% dialyzed FBS, 0.000781 µM | 89.1 | 84.1 | 83.1
HPLM + 10% dialyzed FBS, 0.00234 µM | 102 | 93.9 | 82.7
HPLM + 10% dialyzed FBS, 0.00702 µM | 93.4 | 95.1 | 95.3
HPLM + 10% dialyzed FBS, 0.0211 µM | 105 | 104 | 101
HPLM + 10% dialyzed FBS, 0.0632 µM | 91.6 | 100 | 86.7
HPLM + 10% dialyzed FBS, 0.19 µM | 76.8 | 77.6 | 69.5
HPLM + 10% dialyzed FBS, 0.569 µM | 32.5 | 30.8 | 30.2
HPLM + 10% dialyzed FBS, 1.71 µM | 26.3 | 14.3 | 19.1
HPLM + 10% dialyzed FBS, 5.12 µM | 33.8 | 8.67 | 18.8
HPLM + 10% dialyzed FBS, 15.4 µM | 23.9 | 5.39 | 13.2
HPLM + 10% dialyzed FBS, 46.1 µM | 25.2 | 4.89 | 11.6
RPMI 5 mM glucose + 10% FBS, 0.000781 µM | 84.2 | 94.5 | 101
RPMI 5 mM glucose + 10% FBS, 0.00234 µM | 87.9 | 95.3 | 97.2
RPMI 5 mM glucose + 10% FBS, 0.00702 µM | 86.5 | 96.5 | 104
RPMI 5 mM glucose + 10% FBS, 0.0211 µM | 99.2 | 95.7 | 98.3
RPMI 5 mM glucose + 10% FBS, 0.0632 µM | 92.7 | 98.7 | 93.5
RPMI 5 mM glucose + 10% FBS, 0.19 µM | 85.7 | 83.2 | 80.7
RPMI 5 mM glucose + 10% FBS, 0.569 µM | 39.9 | 34.1 | 23.2
RPMI 5 mM glucose + 10% FBS, 1.71 µM | 12.5 | 20.9 | 12.1
RPMI 5 mM glucose + 10% FBS, 5.12 µM | 19.3 | 8.85 | 12.2
RPMI 5 mM glucose + 10% FBS, 15.4 µM | 16.6 | 5.8 | 13.5
RPMI 5 mM glucose + 10% FBS, 46.1 µM | 16 | 4.88 | 6.13
RPMI 5 mM glucose + 10% dialyzed FBS, 0.000781 µM | 92 | 86.9 | 75.4
RPMI 5 mM glucose + 10% dialyzed FBS, 0.00234 µM | 81.5 | 95.1 | 76
RPMI 5 mM glucose + 10% dialyzed FBS, 0.00702 µM | 92.9 | 101 | 99.9
RPMI 5 mM glucose + 10% dialyzed FBS, 0.0211 µM | 90 | 94.3 | 86.5
RPMI 5 mM glucose + 10% dialyzed FBS, 0.0632 µM | 93.6 | 97.6 | 81.2
RPMI 5 mM glucose + 10% dialyzed FBS, 0.19 µM | 91.3 | 91.2 | 63
RPMI 5 mM glucose + 10% dialyzed FBS, 0.569 µM | 47.7 | 43.9 | 29.2
RPMI 5 mM glucose + 10% dialyzed FBS, 1.71 µM | 20 | 22.7 | 16.8
RPMI 5 mM glucose + 10% dialyzed FBS, 5.12 µM | 19.4 | 15 | 17.9
RPMI 5 mM glucose + 10% dialyzed FBS, 15.4 µM | 20.2 | 10.4 | 16.9
RPMI 5 mM glucose + 10% dialyzed FBS, 46.1 µM | 17.5 | 5.7 | 8.73

AUC of viability dose-response curve
Details | NOMO1 [4] | P12-Ichikawa [5] | SEM cells [6]
HPLM + 10% dialyzed FBS | 304 | 271 | 266
RPMI 5 mM glucose + 10% FBS | 280 | 279 | 280
RPMI 5 mM glucose + 10% dialyzed FBS | 292 | 291 | 249
